Measurements reported in US6667346B2, “Method for protecting cells and tissues from ionizing radiation toxicity with α, β unsaturated aryl sulfones” (Temple University - Of The Commonwealth System of Higher …, priority 2001, dated 2003).

What was measured:
HFL-1 cells = experiment: Radioprotective effects on cultured normal cells (colony formation after irradiation); assay type: cell-based, human; details: HFL-1 normal diploid lung fibroblasts; 2.5 to 20 micromolar for 24 hrs before 10 Gy or 15 Gy IR; colonies counted after 3 weeks
Procedure: HFL-1 cells, which are normal diploid lung fibroblasts, were plated into 24 well dishes at a cell density of 3000 cells per 10 mm^2 in DMEM completed with 10% fetal bovine serum and antibiotics. The test compounds listed in Table 16 were added to the cells 24 hours later in select concentrations from 2.5 to 20 micromolar, inclusive, using DMSO as a solvent. Control cells were treated with DMSO alone. The cells were exposed to the test compound or DMSO for 24 hrs. The cells were then irradiated with either 10 Gy (gray) or 15 Gy of ionizing radiation (IR) using a J. L. Shepherd Mark I, Model 30-1 Irradiator equipped with ^137cesium as a source.
After irradiation, the medium on the test and control cells was removed and replaced with fresh growth medium without the test compounds or DMSO. The irradiated cells were incubated for 96 hours and duplicate wells were trypsinized and replated onto 100 mm^2 tissue culture dishes. The replated cells were grown under normal conditions with one change of fresh medium for 3 weeks. The number of colonies from each 100 mm^2 culture dish, which represents the number of surviving cells, was determined by staining the dishes as described below.
To visualize and count the colonies derived from the clonal outgrowth of individual radioprotected cells, the medium was removed and the plates were washed one time with room temperature phosphate buffered saline. The cells were stained with a 1:10 diluted Modified Giemsa staining solution (Sigma) for 20 minutes. The stain was removed, and the plates were washed with tap water. The plates were air dried, the number of colonies from each plate were counted and the average from duplicate plates was determined.
A “+” indicates radioprotective activity of between 2- and 4.5-fold at the concentrations tested. Fold protection was determined by dividing the average number of colonies from the test plates by the average number of colonies on the control plates.

DU145 cells = experiment: Tumor cell killing by ionizing radiation, compound added after IR treatment; assay type: cell-based; details: for Interference with killing of tumor cells by ionizing radiation: continuous exposure, added immediately following 10 Gy IR
Procedure: DU145 cells were plated in 6 well dishes at a cell density of 1.0×10^5 cells per 35 mm^2 in DMEM completed with 10% fetal bovine serum and antibiotics. The plates were incubated overnight and the cells were irradiated with 10 Gy of ionizing irradiation. Compound 1 (1.0 uM and 2.0 uM) or Compound 13 (10.0 uM and 20.0 uM) in DMSO was added to the cells immediately following the IR treatment.

C57 black mice = experiment: Protection of mice from radiation toxicity by pre-treatment (mortality after 8 Gy); assay type: in vivo
Procedure: C57 black mice age 10-12 weeks (Taconic) were divided into two treatment groups of 10 mice each. One group, designated the “200×2” group, received intraperitoneal injections of 200 micrograms (E)-4-carboxystyryl-4-chlorobenzylsulfone dissolved in DMSO (a 10 mg/Kg dose, based on 20 g mice) 18 and 6 hours before irradiation with 8 Gy gamma radiation. The other group, designated “500×2,” received intraperitoneal injections of 500 micrograms (E)-4-carboxystyryl-4-chlorobenzylsulfone dissolved in DMSO (a 25 mg/Kg dose, based on 20 g mice) 18 and 6 hours before irradiation with 8 Gy gamma radiation. A control group of 16 animals received 8 Gy gamma radiation alone.

C57 B6/J mice = experiment: Radioprotective effect in mice when given after radiation exposure (mortality after 8 Gy); assay type: in vivo
Procedure: One group, designated the “200×2” group, received intraperitoneal injections of 200 micrograms (E)-4-carboxystyryl-4-chlorobenzylsulfone dissolved in DMSO (a 10 mg/Kg dose, assuming 20 g mice) 18 and 6 hours before irradiation with 8 Gy gamma radiation. The other group, designated “200 Post,” received an intraperitoneal injection of 200 micrograms (E)-4-carboxystyryl-4-chlorobenzylsulfone dissolved in DMSO (a 10 mg/Kg dose, based on 20 g mice) 15 minutes after irradiation with 8 Gy gamma radiation. A control group of 16 animals received 8 Gy gamma radiation alone.

[1] = "200×2" group: 10 mg/Kg i.p. 18 and 6 hours before 8 Gy gamma radiation
[2] = "500×2" group: 25 mg/Kg i.p. 18 and 6 hours before 8 Gy gamma radiation

Q: For “(E)-4-Fluorostyryl-4-chlorophenylsulfone [Compound 10]”, which “Activity (radioprotective activity, fold protection: colonies test/control)” value (HFL-1 cells) is on record?
A: The value was “+ (radioprotective activity of between 2- and 4.5-fold at the concentrations tested)”.

Q: With `O=S(=O)(/C=C\c1ccc(F)cc1)Cc1ccc(Cl)cc1` [Compound 7, (Z)-4-Fluorostyryl-4-chlorobenzylsulfone] as the molecule, how does the “Activity (radioprotective activity, fold protection: colonies test/control)” value (HFL-1 cells) read?
A: Its value is “+ (radioprotective activity of between 2- and 4.5-fold at the concentrations tested)”.

Q: For `O=C(O)c1ccc(/C=C/S(=O)(=O)Cc2ccc(Cl)cc2)cc1` [Compound 13, (E)-4-Carboxystyryl-4-chlorobenzylsulfone], which “Activity (radioprotective activity, fold protection: colonies test/control)” value (HFL-1 cells) is on record?
A: The value was “+ (radioprotective activity of between 2- and 4.5-fold at the concentrations tested)”.

Q: What about the “Additive tumor cell killing effect” value (DU145 cells; 20 uM added immediately following 10 Gy IR) of the same molecule?
A: The value was “additive tumor cell killing effect”.

Q: What about the “Interference with killing of tumor cells by ionizing radiation” value (DU145 cells) of the same molecule?
A: Its value is “did not interfere with the killing of tumor cells by ionizing radiation”.

Q: What about the “Maximum mortality rate by day 40” value (C57 black mice; [1]) of the same molecule?
A: The value was “approximately 60%”.

Q: And the “Mice dead at day 20 post-irradiation” value (C57 black mice; [1])?
A: Its value is “about 50%”.

Q: And the “Maximum mortality rate by day 40” value (C57 black mice; [2])?
A: The value was “about 50%”.

Q: And the “Mice dead at day 20 post-irradiation” value (C57 black mice; [2])?
A: Its value is “about 30%”.

Q: And the “Radiation toxicity in mice” value (C57 black mice; pretreatment 18 and 6 hours before 8 Gy gamma radiation)?
A: The value was “significantly reduced”.

Q: And the “Radioprotection by post-irradiation treatment versus pre-irradiation treatment” value (C57 B6/J mice; "200 Post" vs "200×2" group, 8 Gy gamma radiation)?
A: The value was “not as great as seen with pre-irradiation treatment”.

Q: And the “Radiation-induced mortality compared with control animals” value (C57 B6/J mice; "200 Post": 10 mg/Kg i.p. 15 minutes after 8 Gy gamma radiation)?
A: Its value is “significant delay in radiation-induced mortality”.

Q: For “(E)-4-Fluorostyryl-4-trifluoromethylbenzylsulfone [Compound 5]”, which “Activity (radioprotective activity, fold protection: colonies test/control)” value (HFL-1 cells) is on record?
A: The value was “+ (radioprotective activity of between 2- and 4.5-fold at the concentrations tested)”.

Q: How did the “Activity (radioprotective activity, fold protection: colonies test/control)” value (HFL-1 cells) turn out when “(E)-2,4,6-Trimethoxystyryl-4-methoxybenzylsulfone [Compound 2]” was run?
A: The value was “+ (radioprotective activity of between 2- and 4.5-fold at the concentrations tested)”.

Q: For `O=S(=O)(/C=C/c1ccoc1)Cc1ccc(Cl)cc1Cl` [Compound 8, (E)-3-Furanethenyl-2,4-dichlorobenzylsulfone], which “Activity (radioprotective activity, fold protection: colonies test/control)” value (HFL-1 cells) is on record?
A: The value was “+ (radioprotective activity of between 2- and 4.5-fold at the concentrations tested)”.

Q: How did the “Activity (radioprotective activity, fold protection: colonies test/control)” value (HFL-1 cells) turn out when `O=S(=O)(/C=C/c1ccc(F)cc1)Cc1ccc(Cl)cc1` [Compound 1, (E)-4-Fluorostyryl-4-chlorobenzylsulfone] was run?
A: Its value is “+ (radioprotective activity of between 2- and 4.5-fold at the concentrations tested)”.

Q: And the “Additive tumor cell killing effect” value (DU145 cells; 2.0 uM added immediately following 10 Gy IR)?
A: Its value is “additive tumor cell killing effect”.

Q: And the “Interference with killing of tumor cells by ionizing radiation” value (DU145 cells)?
A: Its value is “did not interfere with the killing of tumor cells by ionizing radiation”.

Q: How did the “Activity (radioprotective activity, fold protection: colonies test/control)” value (HFL-1 cells) turn out when “(E)-4-Fluorostyryl-4-cyanobenzylsulfone [Compound 6]” was run?
A: The value was “+ (radioprotective activity of between 2- and 4.5-fold at the concentrations tested)”.

Q: With “(Z)-Styryl-(E)-2-methoxy-4-ethoxystyrylsulfone [Compound 11]” as the molecule, how does the “Activity (radioprotective activity, fold protection: colonies test/control)” value (HFL-1 cells) read?
A: Its value is “+ (radioprotective activity of between 2- and 4.5-fold at the concentrations tested)”.
